Tests used:
MDCK cells = assay: metabolic rate of MDCK cells grown on the silicon sensor surface; type: cell-based, canine; conditions: 3 μM epinephrine, primary introduction
Dx5 = conditions: previously characterized; cited from earlier work

Row | Compound | change of metabolic rate vs. control rate (MDCK cells) | resistance of Dx5 (Dx5)
1 | CNC[C@H](O)c1ccc(O)c(O)c1 [epinephrine] | did not significantly alter the metabolic rate | –
2 | CC[C@]1(O)C[C@H]2CN(CCc3c([nH]c4ccccc34)[C@@](C(=O)OC)(c3cc4c(cc3OC)N(C=O)[C@H]3[C@@](O)(C(=O)OC)[C@H](OC(C)=O)[C@]5(CC)C=CCN6CC[C@]43[C@@H]65)C2)C1 [vincristine] | – | resistant
3 | COc1cccc2c1C(=O)c1c(O)c3c(c(O)c1C2=O)C[C@@](O)(C(=O)CO)C[C@@H]3O[C@H]1C[C@H](N)[C@H](O)[C@H](C)O1 [doxorubicin] | – | resistant

— patent US5496697A, “Methods and apparatus for detecting the effect of cell affecting agents on living cells” (priority 1993, dated 1996)
